How the values were obtained:
MN9X cells = assay: intracellular ATP concentration in non-dopaminergic neuronal cells; format: cell-based; details: 5 μM
Protocol: Dopaminergic (MN9D) and non-dopaminergic (MN9X) neuronal cells were treated with 5 μM pyran-1,2-naphthoquinone and the ATP concentration was periodically measured.

HEK293 cells = assay: intracellular NADH / NAD(P)H concentration in HEK293 cells; format: cell-based, human; details: for intracellular NADH concentration: 2 hours
Protocol: 2) Determination of Intracellular NAD(P)H Using a Water-Soluble Tetrazolium Salt-8 (WST-8) in Living Cells:
A water-soluble tetrazolium salt was used to monitor the amount of NAD(P)H through its reduction to a yellow colored formazan dye. The total amount of NAD(P)H within viable cells in the medium was determined periodically by a spectrophotometer. Cells were seeded in 96-well plates (2×10^4 cells/well) and were cultured in 100 μl of a medium containing fetal bovine serum (FBS) and antibiotics for 24 hours. Immediately after treatment of the cells with a candidate compound (e.g., pyrano-1,2-naphthoquinone) at indicated concentrations and a 1/10 volume of a CCK-8 solution (Dojindo Molecular Technology), absorbance measurements were carried out using a spectrophotometer. The CCK-8 solution consisted of a water-soluble 2-(2-methoxy-4-nitrophenyl)-3-(4-nitrophenyl)-5-(2,4-disulfophenyl)-2H-tetrazolium monosodium salt (WST-8, 5 mM) and 1-methoxy-5-methylphenazinium methylsulfate (1-methoxy PMS, 0.2 mM) as an electron mediator. WST-8 produced a water-soluble yellow colored formazan dye through its bioreduction either in the presence of an electron carrier, 1-methoxy PMS and NAD(P)H or directly by NAD(P)H. Therefore, the reduction in tetrazolium salts mostly depends on the amount of intracellular NAD(P)H. The amount of formazan dye produced by the living cells in the medium was determined periodically at a wavelength of 450 nm (reference filter. 650 nm) by a spectrophotometer and compared to the values of control. In addition, a medium blank was prepared with only medium and physiological saline.
In order to monitor monochromatic fluorescence (350 nm), light was illuminated using a 75 W xenon arc lamp directed via a 10 Hz chopper wheel; specific fluorescence intensity was measured at a wavelength of 405±15 nm and 460±10 nm.
Specifically, the NQO1 activity and changes in the intracellular NAD(P)H fluorescence concentration in the presence/absence of NQO1 activity were measured in HepG2, HEK293 and pSG5 HA-NQO1 or pSG5 HA NQO1 C609T-inserted HEK293 cells.

[1] = liver and muscle histology (H&E, EM) in ob/ob mice; format: in vivo, mouse; details: 56 days
Protocol: The removed tissues were cut into a proper size, fixed in 10% formalin, washed with water, and embedded in paraffin to prepare blocks, according to a conventional method. The thus-prepared blocks were sectioned into a 4 μm thickness and subjected to hematoxylin and eosin (H&E) staining for observation of general changes.
For observation of cellular microstructures, the removed tissues were sliced into a size of 1 mm^3, pre-fixed in 2.5% glutaraldehyde (0.1M PBS, pH 7.4, 4° C.) for 2 to 4 hours, washed, and post-fixed in a 1% osmium tetroxide solution for 2 hours. Then, according to a conventional method, the tissues were dehydrated with serial concentrations of ethanol and the solvent was replaced with propylene oxide. The tissues were embedded in an epoxy resin mixture, and the embedded tissues were subjected to thermal polymerization to prepare blocks. The thus-prepared blocks were sectioned into a thickness of 0.5 to 1 μm using a ultramicrotome and stained with toludine blue. Observation sites were selected under a light microscope and the tissues were ultrasectioned to a thickness of 60 to 70 nm. The ultrasectioned specimens were subjected to dual staining of uranyl acetate and lead citrate and were observed under a transmission electron microscope (H-600, Hitachi, Japan) at an accelerating voltage of 75 kV.
In order to examine fat accumulation in the liver tissue, animals were laparotomized 56 days after administration of pyran-1,2-naphthoquinone, and H&E staining and EM examination were performed on the liver tissue.

[2] = swimming test of physical endurance; format: in vivo, mouse; details: C57BL/6 DIO mice, single administration, 3 hours later
Protocol: This Example was intended to measure a difference in physical endurance of mice through a swimming test. For this purpose, water was placed in a cylindrical trough having a diameter of 9.5 cm and a height of 25 cm, and pyrano-1,2-naphthoquinone was administered to C57BL/6 DIO mice. 3 hours later, a sample-administered group and a control group were placed simultaneously into each cylindrical trough for measurement, and physical endurance of each group was measured and compared.

CC1(C)CCC2=C(O1)c1ccccc1C(=O)C2=O [βL, 2,2-Dimethyl-3,4-dihydro-2H-benzo[h]chromene-5,6-dione]
intracellular ATP concentration (MN9X cells): decreased
intracellular NADH concentration (HEK293 cells; HEK293 cells after insertion of an NQO1 gene): concentration-dependent decrease of NADH
intracellular NADH concentration (HEK293 cells; HEK293 cells having no NQO1 activity): no change in an NADH concentration
NAD(P)H oxidation (HEK293 cells; HEK293 cells with insertion of a wild-type NQO1 gene): βL-facilitated NAD(P)H oxidation
NAD(P)H oxidation (HEK293 cells; HEK293 cells with insertion of catalytically inactive NQO1C609T gene): no oxidation of NAD(P)H
NAD(P)H oxidation (HEK293 cells; control HEK293 cells without the NQO1 activity): no such changes
EM examination on liver tissues [1]: remarkably decreased fat vacuoles and glycogen stores
EM examination on muscle tissue of animal limbs [1]: recovery of normal mitochondrial morphology
H&E staining on liver tissue [1]: almost all fat vacuoles have disappeared
increase of swimming duration compared to control [2]: two-fold
